Reference: US6551585B1, “Use of tumor necrosis factor as an adjuvant” (Genentech, Inc., priority 1987, dated 2003)
Marks after values point to notes of the source that are not given here.

Key:
[1] = system: 2237 tumor cells (syngeneic fibrosarcoma); test: Immunization with radiation killed 2237 tumor cells plus adjuvant, then footpad challenge with live 2237 cells; tumor volume by calipers; assay type: in vivo, C3H/HeN mice
Source text: C3H/HeN mice were immunized with 1×10^5 radiation killed 2237 tumor cells. The 2237 cell line is a moderately antigenic syngeneic fibrosarcoma obtained from s.c. growing tumors by collagenase dissociation. The donor tumor cells for use in tumor vaccine were irradiated with 10,000 R of gamma irradiation. Irradiation ultimately kills the cells but they are not immediately killed, indeed the cells may be able to undergo one or two additional divisions before a sufficient accumulation of chromosomal breaks or other abnormalities is obtained to result in a lethal event. Thus, irradiation results in a metabolically viable but noncontinuously proliferating cell. The cells were admixed with HBSS alone (serving as a non-adjuvant killed cell control vaccine), or with HBSS containing various doses of homogeneous recombinant Val-terminal human TNF-α alone or TNF-α plus IFN-γ. The mixture was injected intradermally into the posterior ventral region at five sites. Controls also included TNF without tumor cells, injections of HBSS alone (without killed 2237 cells), and FK565, a dimuramyl dipeptide derivative representing a known adjuvant as a positive control. Primary immunization with 2237 cells and TNF-α occurred on day 1; TNF-α was administered intraperitoneally alone on days 2 and 3. Secondary intradermal immunization occurred on day 11 with the same number of killed cells. When IFN-γ was used with TNF-α, IFN-γ administrations accompanied the TNF-α administration and further, IFN-γ, TNF-α or IFN-γ plus TNF-α were administered intraperitoneally on days 12 and 13. Five days after the second immunization the animals' footpads were injected with live 2237 cells. 48, 74 and 81 days later the tumors that had developed were measured by calipers in two dimensions. Numerous control animals had died by the last measurement day. […] Tumor volume was determined using the formula for a prolated sphere using the two dimensions previously measured. The formula is tumor volume (cm^3) equals ½ A×B^2; where A equals the larger tumor diameter and B equals the smaller tumor diameter.

[2] = system: 2237 cells; test: Direct cytotoxic effect on 2237 cells; assay type: cell-based
Source text: This is not especially relevant in the context of the foregoing experiments because the tumor cells were not injected into the animals until 2 days after they had last been exposed to cytokines.

[3] = system: cytotoxic T cells; test: Development of cytotoxic T cells in 2237-cell immunized mice; assay type: in vivo
[4] = system: bovine serum albumin (BSA); test: Serum antibody (IgG) against BSA by Elisa after BSA immunization; assay type: in vivo, C3H/HeN mice; conditions: for Production of antibody (IgG) against BSA: BSA 500 μg i.p. day 0 and second injection 100 μg, adjuvant at various doses, bled three days later, Elisa
Description: C3H/HeN mice were given an i.p. injection of bovine serum albumin using a suboptimal vaccine dose (500 μg/animal), which was administered by i.p. injection on day 0. Various doses of TNF-α, as an adjuvant, were administered 48 hours following a second injection of BSA at 100 μg/animal. The mice were bled three days later and the serum antibody levels as IgG were determined using routine Elisa techniques. The i.v. injection of maleic divinyl ether with an average molecular weight of 20,000 daltons was used as a positive control.

[5] = 500 μg per animal with killed 2237 cell vaccine
[6] = 5 × 10^4 units per animal with killed 2237 cell vaccine
[7] = 0.1 μg per animal with killed 2237 cell vaccine
[8] = 1 μg per animal with killed 2237 cell vaccine
[9] = 5 μg per animal with killed 2237 cell vaccine

Q: For `CCCCCCC(=O)N[C@H](CCC(=O)N[C@@H](CCC[C@@H](N)C(=O)O)C(=O)N[C@H](C)C(=O)O)C(=O)O` [FK565, reference compound], which “Tumor Volume Day 48” value [1, 5] is on record?
A: Its value is 0 cm^3.

Q: And the “Tumor Volume Day 74” value [1, 5]?
A: The value was 0 cm^3.

Q: And the “Tumor Volume Day 81” value [1, 5]?
A: Its value is 0 cm^3.

Q: How did the “Tumor Volume Day 48” value [1, 6] turn out when “IFN-γ: IFN-γ (γ-interferon) lymphokine given with or without TNF-α” was run?
A: Its value is 0 cm^3.

Q: What about the “Tumor Volume Day 74” value [1, 6] of the same molecule?
A: Its value is 0 cm^3.

Q: And the “Tumor Volume Day 81” value [1, 6]?
A: Its value is 0 cm^3.

Q: What does the source list for TNF-α?
A: Direct cytotoxic effect on 2237 cells [2]: Neither TNF-α nor IFN-γ have any significant direct cytotoxic effect; Stimulation of the development of cytotoxic T cells [3]: able to stimulate the development of cytotoxic T cells; Tumor Volume Day 48 [1, 7]: 0 cm^3; Tumor Volume Day 74 [1, 7]: 0 cm^3; Tumor Volume Day 81 [1, 7]: 0 cm^3; Fate of the tumor that had developed in one animal ([1]; 1 μg per animal group, footnote to Day 48 value): *The tumor that had developed in one animal in this group regressed before the end of the study.; Tumor Volume Day 48 [1, 8]: 0.157* cm^3; Tumor Volume Day 74 [1, 8]: 0 cm^3; Tumor Volume Day 81 [1, 8]: 0 cm^3; Tumor Volume Day 48 [1, 9]: 0 cm^3; Tumor Volume Day 74 [1, 9]: 0 cm^3; Tumor Volume Day 81 [1, 9]: 0 cm^3; Production of antibody (IgG) against BSA [4]: in a dose-dependent manner augmented; Serum antibody activity after injection of TNF alone ([4]; control, TNF alone): did not induce serum antibody activity

Q: Which “Production of antibody (IgG) against BSA” value [4] does the source give for “maleic divinyl ether [MVE-2, reference compound]” here?
A: Its value is “in a dose-dependent manner augmented”.

B1: IFN-γ: IFN-γ (γ-interferon) lymphokine given with or without TNF-α (protein, UniProt P01579 24-161, looked up)
Interferon gamma: QDPYVKEAENLKKYFNAGHSDVADNGTLFLGILKNWKEESDRKIMQSQIVSFYFKLFKNFKDDQSIQKSVETIKEDMNVKFFNSNKKKRDDFEKLTNYSVTDLNVQRKAIHELIQVMAELSPAAKTGKRKRSQMLFRG
Q: B1 was tested. Which “Direct cytotoxic effect on 2237 cells” value [2] did it give?
A: Its value is “Neither TNF-α nor IFN-γ have any significant direct cytotoxic effect”.
